This is an account of results in patent US11034952B2, “Aptamer methods and compositions” (The Trustees of Columbia University in the City of New York, priority 2013, dated 2021).

For series [1] the following is noted: read-out: Kd for glucose; cited from earlier work.
Series [2] in a line: oral phenylalanine load, Phe concentration in serum from capillary blood detected by aptamer. It is filed as in vivo. Particulars: 100 mg per kg body weight by mouth, 1 hr, FIG. 11B. As for the experimental part: FIG. 11A-FIG. 11B is a chemical structure of PACp*Rh01 aptamer (SEQ ID NO: 53) reactive for Phe and cross-reactive for Trp and a scatter and line plot showing use thereof. FIG. 11A depicts the structure of an aptamer reactive for Phe and cross-reactive for Trp. FIG. 11B is a scatter and line plot showing aptamer detected Phe concentration (μM) as a function of time (hr) in serum samples from capillary blood of subject two and subject three having an oral load of 100 mg/kg at time zero.
This aptamer was used to detected Phe concentration (μM) as a function of time (hr) in serum samples from capillary blood of subject one and subject three that took 100 mg of phenylanine per kg body weight by mouth at time zero (see e.g., FIG. 11B). […] Every hour, blood was measured for the phenylalanine concentration. In a healthy subject, the enzymes that break down phenylalanine (e.g., phenylalanine hydroxylase (PAH) or BH4-cofactor, alone or together) are stimulated and break down phenylalanine resulting in decreased concentration (see 2-5 hr in FIG. 11B).

In series [3] the test system is phenylalanine complexed with Cu(II). The experiment in a line: amino acid selectivity of Cu(II) phenylalanine aptamers (RFU vs amino acid concentration). It is filed as binding. Particulars: for amino acid selectivity: Cu(II). As for the experimental part: (§1) FIG. 12A-FIG. 12D is a series of aptamer structures and scatter and line plots showing use thereof.
This aptamer sensor mixture (not including Cp*Rh) was incubated with concentrations of amino acids (Phe, Tyr, Trp, Gly) and fluorescence (RFU) measured (see e.g., FIG. 12B).

Series [4] deals with amino acid complexed with Cp*Rh(III). Nature of the series: amino acid selectivity of Cp*Rh(III)-amino acid binding aptamers in sensor form. Particulars: Cp*Rh(III) derivatization agent. An excerpt: A series of aptamers were formed having an unbound nucleic acid pocket (see e.g., FIG. 7B-G).
An exemplary motif having a plurality of unpaired bases forming a pocket that binds a metal complex or an amino acid target molecule is shown in FIG. 8A. […]

Series [5] in a line: amino acid selectivity of HPheA104 aptamer sensor (RFU vs amino acid concentration). It is filed as binding. As for the experimental part: as §1
This aptamer sensor mixture (not including Cp*Rh) was incubated with concentrations of amino acids (Phe, Trp, Tyr) and fluorescence (RFU) measured (see e.g., FIG. 12D).

Usually Kd stands for the constant that tells how readily two partners part at equilibrium. Consider `CN(Cc1ccccc1B(O)O)Cc1c2ccccc2c(CN(C)Cc2ccccc2B(O)O)c2ccccc12` [bis-boronic receptor], for which the Kd in series [1] was about 500 µM. For `N[C@@H](Cc1ccccc1)C(=O)O` [phenylalanine], the “phenylalanine concentration in blood” value in series [2] was “rises significantly”. Regarding “CTCTCGGGACGACAGGTCCCTTTCGTAGATCGAGGAAGTATGTCGTCCC (listed as DNA, chemistry not fully specified) [Cu(II)-Phe10_49 nt, phenylalanine-Cu(II) complex aptamer]”, the amino acid selectivity result in series [3] is “Phe cross-reactive Trp”. In the case of “CTCTCGGGACGACCGCGGTAGTCTTAACCTAAAGCGGTGTCAGGTCGTCCC (listed as DNA, chemistry not fully specified) [HTrp03, tryptophan-Cp*Rh(III) complex aptamer]”, the amino acid selectivity result in series [4] is recorded as “Trp selective”.

As to “CTCTCGGGACGACCGCGTTTCCCAAGAAAGCAAGTTTTGGTTGGTCGTCCC (aptamer; listed as DNA, chemistry not fully specified) [HPheA104]”, the amino acid selectivity result in series [5] was “Phe reactive”. Further, in series [5] (sensor mixture not including Cp*Rh, FIG. 12D), the “specificity among phenylalanine, tryptophan, tyrosine” value is listed as “Phe specificity is demonstrated”. “CTCTCGGGACGACGACACGGGCGTCCCTTCACAAGGAGAGTGAGTCGTCCC (listed as DNA, chemistry not fully specified) [ARG01_Cp, arginine-Cp*Rh(III) complex aptamer]”: in series [4], the amino acid selectivity result is recorded as “Arg selective”.

For “CTCTCGGGACGACGAGGCTGGATGCATTCGCCGGATGTTCGATGTCGTCCC (listed as DNA, chemistry not fully specified) [Cu(II)_Phe01, phenylalanine-Cu(II) complex aptamer]”, in series [3], the amino acid selectivity entry is given as “Phe reactive”. For the same compound, the “specificity among phenylalanine, tyrosine, tryptophan, glycine” value in series [3] (sensor mixture not including Cp*Rh, FIG. 12B) is “Phe specificity is demonstrated”.

Regarding “CTCTCGGGACGACGCGGTGTGGATCCCTCGTAGAAGGAGTAGTGTCGTCCC (aptamer; listed as DNA, chemistry not fully specified) [LysCp05, lysine-Cp*Rh(III) complex aptamer]”, the amino acid selectivity entry in series [4] is “Lys selective”. Same read-out and setting: to “CTCTCGGGACGACGGACGCTAATCTTACAAGGGCGTAGTGTATGTCGTCCC (listed as DNA, chemistry not fully specified) [PACp*Rh01, phenylalanine-Cp*Rh(III) complex aptamer]” belongs “Phe cross-reactive Trp”. As to “CTCTCGGGACGACGGCCCGATCTCAGAGTAGTCGTCCC (listed as DNA, chemistry not fully specified) [Tyr-Cp*Rh(38nt), tyrosine-Cp*Rh(III) complex aptamer]”, the amino acid selectivity entry in series [4] was “Tyr selective”. On to “CTCTCGGGACGACGGCGGGCGCGTATGTATATCATAAGGTGTAGTCGTCCC (aptamer; listed as DNA, chemistry not fully specified) [LeuCp17, leucine-Cp*Rh(III) complex aptamer]”, for which, in series [4], the amino acid selectivity entry is recorded as “selective for Leu over Ile”. The same measure, in the same setting: to “CTCTCGGGACGACGGCGGGGAAACAGCTGCAAAATGTGGAGTAGTCGTCCC (Cp*Rh(III)-citrulline complex, further chemistry not given here) [CIT30N02_Cp*Rh, citrulline-Cp*Rh(III) complex aptamer]” belongs “citrulline non-selective”; to “CTCTCGGGACGACGGCGGGTGAATGCACACTTAGCAGAGAGTAGTCGTCCC (aptamer; listed as DNA, chemistry not fully specified) [GlutaCp02, glutamine-Cp*Rh(III) complex aptamer]”, “Gln selective”; to “CTCTCGGGACGACGGGCCACGTTTTCCAGGTACTTTCTAAGGGGTCGTCCC (aptamer; listed as DNA, chemistry not fully specified) [AspaCp03, asparagine-Cp*Rh(III) complex aptamer]”, “Asn selective”. Same read-out and setting: the result for “CTCTCGGGACGACGGGCTAGGCGTGGGTGTAAAGGCACAGGGGTCGTCCC (listed as DNA, chemistry not fully specified) [Gly-Cp sensor, glycine-Cp*Rh(III) complex aptamer]” reads “Gly selective”.

With “CTCTCGGGACGACGGGTCAGTTAGACCGTGAGGCTTCCGAATAGTCGTCCC (aptamer; listed as DNA, chemistry not fully specified) [GLYHW-Cp*Rh06, glycine-Cp*Rh(III) complex aptamer]”, in series [4], the amino acid selectivity entry is recorded as “Gly non-specific”. The same measure, in the same setting: to “CTCTCGGGACGACGGGTGGGAGCGATTCGAGCTACTCAGGTATGTCGTCCC (aptamer; listed as DNA, chemistry not fully specified) [LysCp*Rh18, lysine-Cp*Rh(III) complex aptamer]” belongs “Lys non-selective”.
